Experimental data reported in patent publication US10017501B2, “Benzimidazole derivatives as bromodomain inhibitors” (Gilead Sciences, Inc., priority 2013, dated 2018).
Like-named read-outs stand apart in the source and are kept apart here.

Columns and labels:
[1] = system: MT-4 cells; assay: MT-4 proliferation assay; assay type: cell-based, human
Protocol: MT-4 Proliferation Assay:
Compounds were tested in a standardized high-throughput 384-well assay format. Each compound was serially diluted 3-fold in 100% DMSO in polypropylene 384-well plates using a Biomek FX Workstation, and 0.4 μL compound added to an assay plate containing 40 μL RPMI media. Compounds were arranged in a horizontal pattern, with 10 concentrations per compound, and 8 compounds added per plate. Due to low DMSO tolerability, the final DMSO concentration never exceeded 0.5% (v/v). Each assay plate contained 10 μM Puromycin and 0.5% DMSO in RPMI-1640 as positive and negative controls respectively. MT-4 cells (HTLV-1 transformed, human T lymphoblastoid cells, NIH Aids Reagent program) were added in volumes of 35 μL per well and 2,000 cells per well using a Biotek uFlow Workstation (Biotek, Winooski, Vt.), and the plates subsequently incubated for 5 days at 37° C. in an incubator set at 5% CO2 and 90% humidity.
After 5 days, 22 μL Cell Titer Glo (Promega) was added to the assay plates with a Biotek uFlow Workstation. Plates were subsequently placed on a Perkin Elmer Envision Plate Reader for 5 minutes before the luminescence signal was read.

[2] = system: c-Myc produced in MM.1S cells; assay: c-Myc down regulation assay (MSD); assay type: cell-based; conditions: 24 hrs
Protocol: (§1) c-Myc Down Regulation and MM.1S Viability Assays:
An enzyme linked immunosorbent assay using the Meso Scale Diagnostic (MSD) technology was used to detect levels of c-Myc produced in MM.1S cells (ATCC). MM.1S cells were cultured in RPMI-1640 media (Corning), supplemented with 10% FBS (Hyclone), 1% penicillin-streptomycin (Cellgro), 2-mercaptoethanol (Gibco) and seeded onto 384-tissue culture treated filter binding plates (Millipore) at a density of 40K cells/well containing titrations of small molecule inhibitors or DMSO (0.4%) in a volume of […] of media. After an incubation time of 24 hrs, cells were lysed (1× lysis buffer (Thermo) supplemented with protease and phosophatase inhibitor cocktail (Thermo)) and the plates centrifuged (1000 rpm, 1 min) to capture c-Myc on MSD plates coated with a monoclonal c-Myc antibody (Origene). Assay wells were washed (3× Invitrogen wash buffer) and probed with a polyclonal c-Myc antibody (Abcam) and MSD detection antibody solution in order to detect levels of c-Myc on the MSD platform. c-Myc capture was reported in pg/ml based on a standard curve using recombinant c-Myc protein (Prosci). EC50 values were calculated from the fit of the dose-response curves to a four-parameter equation. All EC50 values represent geometric mean values of a minimum of four determinations. These assays generally produced results within 3-fold of the reported mean.

[3] = system: MM.1S cells; assay: MM.1S viability assay (CellTiter Glo); assay type: cell-based; conditions: 72 hr, read-out: MM.1S Cell viability (EC50)
Protocol: as §1
For cell viability in the MM.1S cell line, cells were seeded onto 384-tissue culture treated plates (Greiner) at a density of 60K cells/well containing titrations of small molecule inhibitors or DMSO (0.2%). After 72 hr incubation cells were analyzed for cell viability by addition of CellTiter Glo (Promega) to the assay plates. After 15 min incubation at room temperature the signal from the viable cells was analyzed on an Envision plate reader (Perkin Elmer). EC50 values were calculated from the fit of the dose-response curves to a four-parameter equation. All EC50 values represent geometric mean values of a minimum of four determinations. These assays generally produced results within 3-fold of the reported mean.

[4] = Homo sapiens, MT4, 120 h, Table 2, 5 days, Cell Titer Glo, read-out: MT4 Assay (EC50)
[5] = Homo sapiens, MT4, 120 h, Table 1, 5 days, Cell Titer Glo, read-out: MT4 Assay (EC50)

| Structure (SMILES) | EC50 ([2]; Homo sapiens, MM1.S) | EC50 ([3]; Homo sapiens, MM1.S) | EC50 [1, 4] | other results |
| --- | --- | --- | --- | --- |
| Cc1cccc(C(O)(c2cc(-c3c(C)noc3C)cc3[nH]c(C4CC4)nc23)C2CCCO2)n1 (racemic) [Compound 1020-114, (2-cyclopropyl-6-(3,5-dimethylisoxazol-4-yl)-1H-benzo[d]imidazol-4-yl)(6-methylpyridin-2-yl)(tetrahydrofuran-2-yl)methanol] | 4.8 nM | 21.2 nM | – | EC50 ([1]; Homo sapiens, MT4, 120 h, read-out: MT4 Assay (EC50, nM)): 2.5 nM |
| Cc1noc(C)c1-c1cc(C(O)(c2ccccn2)c2ncccn2)c2nc(C3CC3)[nH]c2c1 (single isomer, unassigned) [Compound 1020-239, (2-cyclopropyl-6-(3,5-dimethylisoxazol-4-yl)-1H-benzo[d]imidazol-4-yl)(pyridin-2-yl)(pyrimidin-2-yl)methanol] | 33.1 nM | 47.5 nM | 14 nM | – |
| Cc1noc(C)c1-c1cc(C(O)(c2cccnn2)C2CCCO2)c2nc(C3CC3)[nH]c2c1 (single isomer, unassigned) [Compound 1020-289, (2-cyclopropyl-6-(3,5-dimethylisoxazol-4-yl)-1H-benzo[d]imidazol-4-yl)(pyridazin-3-yl)(tetrahydrofuran-2-yl)methanol] | – | – | – | EC50 ([1]; Table 2, 5 days, Cell Titer Glo, read-out: MT4 Assay (EC50)): 4.2 nM; EC50 [2]: 5.7 nM; EC50 [3]: 17.8 nM |
| Cc1noc(C)c1-c1cc(C(O)(c2cccnn2)C2CCC(C)(C)O2)c2nc(C3CC3)[nH]c2c1 (single isomer, unassigned) [Compound 1020-298, (2-cyclopropyl-6-(3,5-dimethylisoxazol-4-yl)-1H-benzo[d]imidazol-4-yl)(5,5-dimethyltetrahydrofuran-2-yl)(pyridazin-3-yl)methanol] | 15.3 nM | 16.9 nM | 5.6 nM | – |
| Cc1noc(C)c1-c1cc(C(O)(c2nccs2)c2nccs2)c2nc(C3CC3)[nH]c2c1 [Compound 1020-103, (2-cyclopropyl-6-(3,5-dimethylisoxazol-4-yl)-1H-benzo[d]imidazol-4-yl)di(thiazol-2-yl)methanol] | 37.3 nM | 72.8 nM | 10 nM | – |
| Cc1noc(C)c1-c1cc(C(O)(c2ccccn2)c2ccccn2)c2nc(C3CC3)[nH]c2c1 [Compound 1020-104, (2-cyclopropyl-6-(3,5-dimethylisoxazol-4-yl)-1H-benzo[d]imidazol-4-yl)di(pyridin-2-yl)methanol] | 51.5 nM | 55.5 nM | 12.6 nM | – |
| Cc1noc(C)c1-c1cc(C(O)(c2ccccc2)c2cccnc2)c2nc(C3CC3)[nH]c2c1 (stereo not shown) [Compound 1020-112, (2-cyclopropyl-6-(3,5-dimethylisoxazol-4-yl)-1H-benzo[d]imidazol-4-yl)(phenyl)(pyridin-3-yl)methanol] | 56.7 nM | 145 nM | 18.2 nM | – |
| Cc1noc(C)c1-c1cc(C(O)(c2ccccc2)c2ccccn2)c2nc(C3CC3)[nH]c2c1 (stereo not shown) [Compound 1020-113, (2-cyclopropyl-6-(3,5-dimethylisoxazol-4-yl)-1H-benzo[d]imidazol-4-yl)(phenyl)(pyridin-2-yl)methanol] | 63.1 nM | 169 nM | 19.9 nM | – |
| Cc1noc(C)c1-c1cc(N2C(=O)CCC2C)c2nc(C3CC3)[nH]c2c1 (stereo not shown) [Compound 1020-136, 1-(2-Cyclopropyl-6-(3,5-dimethylisoxazol-4-yl)-1H-benzo[d]imidazol-4-yl)-5-methylpyrrolidin-2-one] | – | – | – | EC50 [1, 5]: 335 nM |
| CCC1CCC(=O)N1c1cc(-c2c(C)noc2C)cc2[nH]c(C3CC3)nc12 (stereo not shown) [Compound 1020-137, 1-(2-Cyclopropyl-6-(3,5-dimethylisoxazol-4-yl)-1H-benzo[d]imidazol-4-yl)-5-ethylpyrrolidin-2-one] | – | – | – | EC50 [1, 5]: 113 nM |
| Cc1noc(C)c1-c1cc(S(=O)(=O)NC2CCCC2)c2nc(Cc3ccccc3)[nH]c2c1 [Compound 1020-141, 2-Benzyl-N-cyclopentyl-6-(3,5-dimethylisoxazol-4-yl)-1H-benzo[d]imidazole-4-sulfonamide] | – | – | – | EC50 [1, 5]: 887 nM |
| Cc1noc(C)c1-c1cc(S(=O)(=O)NC2CCCC2)c2nc(NCC(F)(F)F)[nH]c2c1 [Compound 1020-148, N-Cyclopentyl-6-(3,5-dimethylisoxazol-4-yl)-2-(2,2,2-trifluoroethylamino)-1H-benzo[d]imidazole-4-sulfonamide] | – | – | – | EC50 [1, 5]: 495 nM |
| Cc1noc(C)c1-c1cc(C(O)(c2ccccn2)c2ccccn2)c2nc(C3CC3)[nH]c2c1F [Compound 1020-224, (2-cyclopropyl-6-(3,5-dimethylisoxazol-4-yl)-7-fluoro-1H-benzo[d]imidazol-4-yl)di(pyridin-2-yl)methanol] | 104 nM | 84 nM | 20.5 nM | – |
| Cc1noc(C)c1-c1cc(C(O)(c2ncccn2)c2ccc(F)cc2F)c2nc(C3CC3)[nH]c2c1 (stereo not shown) [Compound 1020-257, (2-Cyclopropyl-6-(3,5-dimethylisoxazol-4-yl)-1H-benzo[d]imidazol-4-yl)(2,4-difluorophenyl)(pyrimidin-2-yl)methanol] | 55.7 nM | 28.4 nM | 14.2 nM | – |
